Some test systems named below: BT-549 breast; CCRF-CEM leukemia; COLO 205 colon; MDA-MB-231 breast; UACC-62 melanoma; A549 NSCLC; HCT-116 colon; K-562 leukemia; MALME-3M melanoma; RXF 393 renal.
Experiment in all cases: growth of human tumour cells (NCI), 48 h

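A five-concentration, 48-hour dose response in 96-well plates underlies each endpoint, interpolated linearly between surrounding concentrations. GI50 = concentration required for 50% inhibition of growth. TGI marks complete inhibition of growth.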 A value given as a limit tells only on which side of the number the result lay.

Experimental findings from PubChem BioAssay (NCI) are described below.

Turning to `CCOC(=O)C1=CSC2=NC3=C(CCC/C3=C\c3cc(OC)c(OC)c(OC)c3)C(c3cc(OC)c(OC)c(OC)c3)N12` (stereo not drawn), the GI50 in the assay on BT-549 breast is 2.64 µM; with CCRF-CEM leukemia, 0.47 µM; in the assay with COLO 205 colon, 3.05 µM; with MDA-MB-231 breast, 3.2 µM; with UACC-62 melanoma, 2.71 µM. The TGI in the assay with BT-549 breast is over 100 µM; in the assay on CCRF-CEM leukemia, 3.74 µM; in the assay on COLO 205 colon, over 100 µM; in the assay with MDA-MB-231 breast, over 100 µM; with UACC-62 melanoma it was over 100 µM.

As to `O=CC(O)C(O)C(OC1OC(CO)C(O)C(O)C1O)C(O)CO` (stereo not drawn) (tested in a mixture with another compound), the TGI with A549 NSCLC was over 100 µM; in the assay with COLO 205 colon it was over 100 µM; with HCT-116 colon, over 100 µM; in the assay with K-562 leukemia, 98.7 µM; in the assay with MALME-3M melanoma, over 100 µM; in the assay on MDA-MB-231 breast, 91.5 µM. In addition, the TGI in the assay with RXF 393 renal and in the assay on UACC-62 melanoma was over 100 µM in each case.

As for `O=C1c2ccccc2-c2c1c1ccc([N+](=O)[O-])cc1c(=O)n2CCCCl`, the GI50 in the assay on A549 NSCLC was over 100 µM; with BT-549 breast, 13.3 µM; in the assay on HCT-116 colon, 3.62 µM; with K-562 leukemia, 25.7 µM; in the assay with MDA-MB-231 breast, 11.3 µM; with RXF 393 renal, over 100 µM. Moreover, the GI50 in the assay with UACC-62 melanoma was 20.3 µM. For the same molecule, the TGI with A549 NSCLC was over 100 µM; in the assay on BT-549 breast, over 100 µM; in the assay with HCT-116 colon, over 100 µM; in the assay with K-562 leukemia, over 100 µM; in the assay on MDA-MB-231 breast it was 57.7 µM; in the assay on RXF 393 renal, over 100 µM. This molecule had a TGI in the assay on UACC-62 melanoma of over 100 µM.

`Cc1ccc(-c2nc(C(Cl)Cl)nc3cc(C)nn23)cc1`: the GI50 in the assay with A549 NSCLC was 1.33 µM; in the assay on BT-549 breast it was 9.68 µM; in the assay with CCRF-CEM leukemia it was 4.82 µM; in the assay on COLO 205 colon, 1.04 µM; in the assay on HCT-116 colon, 2.09 µM; in the assay on K-562 leukemia, 2.3 µM. The results for the GI50 with MDA-MB-231 breast, in the assay with RXF 393 renal and in the assay on UACC-62 melanoma were 2.34 µM, 0.673 µM and 3.12 µM, respectively. Besides, the TGI in the assay with A549 NSCLC is 6.21 µM; in the assay on BT-549 breast, over 100 µM; in the assay on CCRF-CEM leukemia it was over 100 µM; in the assay on COLO 205 colon, 3.41 µM; in the assay with HCT-116 colon, over 100 µM; in the assay on K-562 leukemia, over 100 µM. Moreover, the TGI is over 100 µM with MDA-MB-231 breast, 2.36 µM in the assay on RXF 393 renal and over 100 µM in the assay on UACC-62 melanoma.

Turning to `CCC1=C(c2ccc(OC)cc2)CC[C@]2(CCNC2=O)[C@@H]1C`, the TGI was over 100 µM in the assay on A549 NSCLC; 60.8 µM with CCRF-CEM leukemia; 19.9 µM in the assay with COLO 205 colon; 52.6 µM in the assay on HCT-116 colon; 48.7 µM with K-562 leukemia; 67.4 µM with MALME-3M melanoma. Moreover, the results for the TGI with MDA-MB-231 breast, in the assay with RXF 393 renal and with UACC-62 melanoma were over 100 µM, over 100 µM and 67.1 µM, respectively.

As to `Nc1n[nH]c2ccc([C@@H]3Nc4c(F)cc5[nH]ncc5c4[C@H]4C5CCC(C5)[C@@H]34)cc12` (stereo partly drawn), the GI50 is 0.352 µM in the assay on A549 NSCLC; 0.374 µM in the assay on BT-549 breast; 0.332 µM in the assay with CCRF-CEM leukemia; 0.337 µM in the assay on COLO 205 colon; 0.293 µM with HCT-116 colon; 0.0546 µM in the assay on K-562 leukemia. Besides, the values for the GI50 in the assay with MALME-3M melanoma, in the assay with MDA-MB-231 breast and with UACC-62 melanoma were 1.38 µM, 0.732 µM and 0.242 µM, respectively. For the same molecule, the TGI in the assay on A549 NSCLC was over 100 µM; in the assay with BT-549 breast, over 31.8 µM; in the assay on CCRF-CEM leukemia, over 52.1 µM; with COLO 205 colon, 1.67 µM; with HCT-116 colon it was 6.22 µM; in the assay with K-562 leukemia, over 52.1 µM. In addition, the values for the TGI in the assay on MALME-3M melanoma, in the assay with MDA-MB-231 breast and with UACC-62 melanoma were over 57.9 µM, over 47 µM and over 44.9 µM, respectively.

Turning to `Nc1nc(-c2ccccc2)cc(-c2cc(Cl)ccc2O)n1`, the TGI in the assay on A549 NSCLC, in the assay on CCRF-CEM leukemia, in the assay with COLO 205 colon, in the assay on HCT-116 colon, in the assay on K-562 leukemia and in the assay on MALME-3M melanoma was over 100 µM each time. Further, the TGI with RXF 393 renal and with UACC-62 melanoma was over 100 µM in each case.

`CCN(CC)CCCNc1c2ccc(Cl)cc2nc2ccc(OC)cc12`: the GI50 in the assay with A549 NSCLC is 0.0582 µM; in the assay with BT-549 breast, 1.78 µM; in the assay with CCRF-CEM leukemia, 0.0473 µM; in the assay with COLO 205 colon, 0.0398 µM; in the assay with HCT-116 colon it was 0.0307 µM; with K-562 leukemia, 0.0308 µM. Moreover, the GI50 in the assay with MALME-3M melanoma was 1.6 µM; in the assay on RXF 393 renal, 0.0403 µM; with UACC-62 melanoma, 1.84 µM. Further, the TGI with A549 NSCLC amounted to 5.83 µM; in the assay with BT-549 breast, 3.63 µM; with CCRF-CEM leukemia, 3.67 µM; in the assay with COLO 205 colon, 2.01 µM; in the assay on HCT-116 colon, 1.64 µM; with K-562 leukemia it was 6.08 µM. Also, the TGI in the assay with MALME-3M melanoma came to 3.38 µM; in the assay with RXF 393 renal, 2.15 µM; in the assay on UACC-62 melanoma, 3.55 µM.

`COC(=O)c1ccc2c(c1)C(=O)c1c-2n(CCCCl)c(=O)c2cc(OC)c(OC)cc12`: the GI50 in the assay on A549 NSCLC, in the assay with CCRF-CEM leukemia, in the assay on COLO 205 colon, in the assay on HCT-116 colon, in the assay with K-562 leukemia and in the assay on MALME-3M melanoma was over 100 µM in each case. Further, the GI50 in the assay with MDA-MB-231 breast and in the assay with UACC-62 melanoma was over 100 µM in each case. Also, the TGI with A549 NSCLC, in the assay with CCRF-CEM leukemia, in the assay on COLO 205 colon, with HCT-116 colon, in the assay with K-562 leukemia and with MALME-3M melanoma was over 100 µM throughout. Further, the TGI in the assay on MDA-MB-231 breast and in the assay with UACC-62 melanoma was over 100 µM in each case.

For the molecule `Cc1cn2c(/C=C3/C(=O)Nc4ccc(C(=O)O)cc43)c(C)nc2s1`, the GI50 with A549 NSCLC, in the assay with BT-549 breast, in the assay with CCRF-CEM leukemia, in the assay on COLO 205 colon, in the assay on K-562 leukemia and in the assay with MALME-3M melanoma was over 100 µM throughout. In addition, the GI50 in the assay with MDA-MB-231 breast and with UACC-62 melanoma was over 100 µM throughout. Moreover, the TGI with A549 NSCLC, with BT-549 breast, with CCRF-CEM leukemia, in the assay with COLO 205 colon, in the assay with K-562 leukemia and with MALME-3M melanoma was over 100 µM throughout. The TGI in the assay with MDA-MB-231 breast and in the assay on UACC-62 melanoma was over 100 µM each time.

Regarding `O=S(=O)(NCCCNc1nccc(-c2c(-c3cccc(F)c3)nc3occn23)n1)c1cccc2ccccc12`, the GI50 in the assay on A549 NSCLC was 6.67 µM; in the assay with BT-549 breast it was 4.44 µM; with CCRF-CEM leukemia, 5.48 µM; in the assay with COLO 205 colon, 4.64 µM; in the assay on HCT-116 colon, 3.71 µM; in the assay with K-562 leukemia, 2.87 µM. In addition, the GI50 with MALME-3M melanoma was 5.24 µM; in the assay on MDA-MB-231 breast, 3.13 µM; in the assay with UACC-62 melanoma it was 4.28 µM. In addition, the TGI with A549 NSCLC, in the assay with BT-549 breast, in the assay with CCRF-CEM leukemia, in the assay with COLO 205 colon, in the assay on HCT-116 colon and in the assay on K-562 leukemia was over 100 µM in each case. Moreover, the TGI in the assay on MALME-3M melanoma, with MDA-MB-231 breast and in the assay on UACC-62 melanoma was over 100 µM each time.

In the case of `O=C1C2C(C(=O)N1CC[Se][Se]CCN1C(=O)C3C(C1=O)[C@H]1C=C[C@@H]3C1)[C@H]1C=C[C@@H]2C1` (stereo partly drawn), the GI50 is 0.447 µM in the assay on A549 NSCLC; 0.566 µM with CCRF-CEM leukemia; 2.12 µM in the assay with COLO 205 colon; 0.409 µM in the assay with HCT-116 colon; 1.63 µM with K-562 leukemia; 0.277 µM in the assay on MALME-3M melanoma. Also, the GI50 in the assay on MDA-MB-231 breast was 0.595 µM; with RXF 393 renal, 0.338 µM; in the assay on UACC-62 melanoma, 1.37 µM. Moreover, the TGI in the assay with A549 NSCLC is 4.72 µM; with CCRF-CEM leukemia, 4.02 µM; with COLO 205 colon, 4.98 µM; with HCT-116 colon, 2.87 µM; in the assay with K-562 leukemia it was over 38.5 µM; in the assay on MALME-3M melanoma, 1.08 µM. Further, the TGI in the assay with MDA-MB-231 breast was 5.48 µM; with RXF 393 renal, 1.11 µM; in the assay on UACC-62 melanoma, 3.24 µM.

With `O=C(O)C1=C(C(=O)O)Oc2ccccc2O1`, the TGI in the assay on A549 NSCLC, in the assay with CCRF-CEM leukemia, in the assay on COLO 205 colon, in the assay with HCT-116 colon, in the assay with K-562 leukemia and with MALME-3M melanoma was over 100 µM throughout. The TGI in the assay with RXF 393 renal and in the assay on UACC-62 melanoma was over 100 µM in each case.

In the case of `Cc1ccc(NC(=O)c2ccc(NC3=C(Cl)C(=O)N(Cc4ccccc4)C3=O)cc2)cc1Cl`, the GI50 is 12.9 µM with A549 NSCLC; 1.04 µM with BT-549 breast; 1.02 µM in the assay with CCRF-CEM leukemia; 13.5 µM with COLO 205 colon; 3.08 µM with HCT-116 colon; 2.23 µM in the assay with K-562 leukemia. Besides, the GI50 in the assay with MDA-MB-231 breast is 1.35 µM; in the assay on UACC-62 melanoma, 15.5 µM. For the same molecule, the TGI is 25.6 µM with A549 NSCLC; 5.09 µM in the assay with BT-549 breast; 3.54 µM in the assay with CCRF-CEM leukemia; over 100 µM in the assay on COLO 205 colon; 13.3 µM in the assay with HCT-116 colon; 12 µM with K-562 leukemia. Besides, the TGI in the assay with MDA-MB-231 breast was 11.9 µM; in the assay with UACC-62 melanoma it was 59.9 µM.

Take `O=C(CCC(=O)C1Cc2ccccc2C1=O)Nc1cccc(C(F)(F)F)c1` (stereo not drawn): the TGI in the assay with A549 NSCLC, in the assay on CCRF-CEM leukemia, in the assay with COLO 205 colon, with HCT-116 colon, with K-562 leukemia and in the assay on MALME-3M melanoma was over 100 µM throughout. For the same molecule, the TGI with RXF 393 renal and with UACC-62 melanoma was over 100 µM each time.
